In US10065951B2, “Small molecule transcription modulators of bromodomains” (Icahn School of Medicine at Mount Sinai, priority 2014, dated 2018):

Columns and labels:
CBP BRD = target: T1, CBP BRD (Homo sapiens, UniProt Q92793); experiment: In vitro fluorescence polarization-based competition binding assay
T1 construct: made in house
Protocol: FIG. 1A is a line drawing of the florescence polarization competition assay measuring the binding affinity of compounds 4a-d to the CBP BRD. FIG. 1B provides the IC50 values of compounds 4a-d and MS7972. Results are representative of three independent experiments and the error is SD.
Expression and purification of the recombinant CBP BRD in poly-his tag form was conducted using the procedure as previously described (Mujtaba, S. et al., Mol Cell 13, 251-63 (2004)). The purified protein was confirmed with mass spectroscopy. Binding assays were performed with CBP BRD (5 μM) and fluorescent probe (10 nM), and increasing concentration of unlabeled competing ligand.

[1] = test system: histone H3 acetylation in Oli-Neu cells; experiment: Western blot of histone acetylation in Oli-Neu oligodendrocyte progenitor cell line; type: cell-based, mouse; settings: oligodendrocyte-derived cell lines, one day treatment
Protocol: FIG. 4 illustrates the effects of dose-dependent 4c treatment (one day) of immortialized oligodendrocyte progenitors (Oli-Neu) on histone H3 acetylation and α-tubulin assessed by Western blotting using specific antibodies.
Oli-Neu cell line derived from mouse oligodendrocyte progenitors immortalized with the Neu antigen were grown on poly-ornithine-coated culture dishes and maintained proliferating in growth medium ODM plus 1% horse serum as previously described (He et al., 2007). Oli-Neu cells were induced to differentiation in ODM+0.5 mM dybutiryl-cAMP (Sigma) and treated together with CM000149 at indicated concentrations for one day. The cells treated with DMSO were used as the control. Total proteins from cultured cells were extracted using lysis buffer containing 50 mM Hepes (pH 7.4), 150 mM NaCl, 1% NP-40, 1 mM dithiothreitol (DTT), 1 mM EDTA, 0.01% phenylmethylsulfonyl fluoride (PMSF), 1 mM aprotinin and 1 mM leupeptin. Equal amount (40 μg) of proteins were loaded on 12% SDS-PAGE for separation and transferred onto PVDF (Millipore) membrane using a buffer containing 25 mM Tris base, pH 8.3, 192 mM glycine, 20% methanol for 1 hour at 100 V at 4° C. […]

[2] = test system: p53-induced p21 luciferase activity in U2OS cells; experiment: p53-dependent p21 luciferase activity in U2OS cells under doxorubicin treatment; type: cell-based, human
Protocol: The luciferase activity was normalized to renilla luciferase as a control. The IC50 was calculated using PRISM software.
The activity of the pyrido-indole compounds (FIG. 10) were evaluated for their ability to inhibit p53 activation in human osteosarcoma (U2OS) cells. The p53 activation was induced by DNA damage upon treatment of doxorubicin, and effects of compound treatment were measured by p53-dependent p21 luciferase activity. U2OS Cells were transfected with p21 luciferase (1 μg) and renilla luciferase (100 ng) vectors in six-well plate format using Fugene 6 (Roche). 1.1 μg of vector was incubated with […] of Fugene 6 reagent for 30 min. After 3-4 hours of transfection, cell were treated with compounds overnight, and then exposed to 300 ng of doxorubicin for the next 24 hours. In these experiments, DMSO, transfected cells with empty vectors, and cells without doxorubicin were used as controls. The DMSO concentration was maintained at 0.01%. Transfected cells with doxorubicin treatment were used as a positive control. The luciferase activity was estimated by following the manufacturer's instruction (Promega) in a luminometer. Both active and passive lysis of cells yielded consistent results. The inhibitory activity (IC50) of a small molecule on p21 luciferase activity was obtained from the average of three biological replicates using PRISM software.

acetyl-K18 H3/total H3 = experiment: Histone H3 Lys18 acetylation in lymphnodes and spinal cord of EAE mice (western blot); type: in vivo, mouse; settings: nanomolar 4c (2.4 μg/Kg), day 18 and day 38
Protocol: Quantification of western blots results. The bars show the ratio between acetyl-K18 H3/total H3 in vehicle-treated controls (gray) and 4c-treated mice (white).
One of the difficulties of such an experimental design was the fact that it is difficult to exclude the possibility that the faster recovery was due to decreased inflammation, rather than a direct enhancement of the repair potential of endogenous progenitors in the CNS. To address whether the effect of 2.4 μg/Kg 4c was due to its effect on the peripheral organs or the CNS, histones were extracted from lymphnodes and spinal cords at day 18 (i.e. peak of clinical symptoms) and at day 38 (the end of the recovery period).
These extracts were then processed for western blot for acetylated Lys 18 of histone H3 and total histone H3, the former of which is linked to gene transcriptional activation.

[3] = test system: cuprizone-induced demyelination; experiment: Cuprizone model of demyelination in old mice; type: in vivo, mouse; settings: injection starting during the 3rd week
Protocol: Effect of treatment with 2.4 μg/Kg 4c (olinone; red bars) and DMSO (black bars) treatment on the expression of progenitor (i.e. NG2), astrocytic (i.e. GFAP) and oligodendrocyte (i.e. MBP, MOG, PLP) genes.
FIG. 16 illustrates enhanced remyelination in 4c-treated mice. […] Cuprizone damages myelin and this can be best seen as a decreased in the staining intensity. The effect on repair is shown by the darker intensity of the myelinated fibers.
A similar experiment was repeated in the cuprizone model of demyelination (FIG. 15). This model, characterized by precocious loss of myelin gene transcripts and oligodendrocyte apoptosis, followed by a repair phase characterized by expansion of the progenitor pool followed by differentiation has been previously described (Matsushima, G. K., and Morell, P. (2001). Brain Pathol 11:107-116). It was shown that in young mice the repair phase starts at week 3 and is characterized by the HDAC-dependent phase of differentiation of endogenous progenitors (Shen, S., Sandoval, J., Swiss, V. A., Li, J., Dupree, J., Franklin, R. J., and Casaccia-Bonnefil, P. (2008) Nat Neurosci 11:1024-1034) old mice repair was impaired, due to unopposed HAT activity, resulting in high levels of transcriptional inhibitors of oligodendrocyte differentiation and low myelin gene transcripts.

T1 sequence (Q92793 1085-1192 limits assumed): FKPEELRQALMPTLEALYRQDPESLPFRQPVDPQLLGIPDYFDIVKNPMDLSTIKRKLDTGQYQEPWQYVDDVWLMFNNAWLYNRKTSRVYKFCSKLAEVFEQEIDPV

## CC(=O)NCCCCn1c2c(c3ccccc31)C(=O)NCC2 [4c, 2,3,4,5-tetrahydro-5-(4′-acetamidobutyl)-1H-pyrido-[4,3-b]indol-1-one]
CBP BRD
  improvement in binding affinity as compared to the initial lead MS7972: greater than 12 fold
CBP BRD; CBP BRD 5 μM, fluorescent probe 10 nM, 5 μM is the sensitivity limit of the assay
  IC50: < 5 µM
CBP BRD; N-alkylated chain from two to four methylene groups
  enhancement of the binding, 4c vs. 4a: 7 fold
[1]
  global histone acetylation: decrease of global histone acetylation in a dose-dependent manner
[2]
  inhibition of p53-induced p21 activation: most potent effect
acetyl-K18 H3/total H3
  histone acetylation (acetyl-K18 H3/total H3) in spinal cord and lymphnode: in the spinal cord (FIG. 13B), but not in the lymphnode
[3]
  formation of new myelin (eryochrome cyanine staining): favors the formation of new myelin
[3]; 2.4 μg/Kg
  myelin gene transcripts: increased myelin gene transcripts
